# Measurements from patent US8618138B2, “Indole amide derivatives and related compounds for use in the treatment of neurodegenerative diseases” (Katholieke Universiteit Leuven, K.U. Leuven R&D, priority 2009, dated 2013).
# Tested on: M17-TAU P301L cells
# Assay: TAU cytotoxicity assay: LDH leakage of retinoic acid incubated M17-TAU P301L cells
# Format: cell-based, human
# Settings: Homo sapiens, 168 h, reduction of LDH activity of retinoic acid incubated M17-TAU P301L cells, 7 days
# From the text: A TAU expression plasmid was constructed by sub-cloning the cDNA of human TAU-P301 L (encoding for TAU with proline 301 substituted by a leucine residue) into mammalian expression vector pcDNA3.1 resulting in plasmid pcDNA3.1-TAU P301L. Plasmids pcDNA3.1 and pcDNA3.1-TAU P301L were transfected to human neuroblastoma cells ([…]; ATCC No. CRL-2267) and independent clonal lines with the plasmids stably integrated into the genome were selected. […] Expression of the TAU P301L genes in the cell lines was confirmed by Western analysis.
# In degenerated or dead cells lactate dehydrogenase (LDH) is leaked out of the cells into the extracellular environment due to a loss of plasma-membrane integrity. This principle was used to determine cytotoxicity by quantifying the level of leaked LDH into the growth medium.
# The detailed method for determining TAU cytotoxicity was as follows: From appropriate precultures of M17-3.1 and M17-TAU(P301L) cells were seeded at 2500 cells/cm2 in Optimem Reduced Serum without phenol red (Gibco, Cat. 31985-047) supplemented with 1% fetal calf serum, 1 mM sodium pyruvate, 1× non-essential amino acids, 500 μg/ml G418 0.5× antibiotic/antimycotic. After 3 h of incubation at 37° C./5% CO2 1 volume of Optimem Reduced Serum (same as described above; except without fetal calf serum) supplemented with 2.5 μM retinoic acid (RA) was added. The cells were further incubated for 7 days. Subsequently, LDH activity was determined using Promega Cytotox 96 Non-Radioactive cytotoxicity assay, (Cat. G1780) according the supplier's instructions.
# The M17-TAU P301L cell line made it possible to assess the ability of novel compounds to counteract TAU cytotoxicity. […] These measurements were used to calculate EC50 values of table 2.
# Exemplary compounds of the present invention are shown in table 2, with their chemical name and their EC50 value (expressed in nM) as determined from example 196 in the Tau-induced toxicity experiment.
row,Compound,EC50 [µM]
1,"O=C(NCCc1c[nH]c2ccc(Cl)cc12)c1ncc(-c2ccccc2)o1 [Example D53, N-(2-(5-chloro-1H-indol-3-yl)ethyl)-5-phenyloxazole-2-carboxamide]",0.171
2,"CC(C)c1ccc(N2CCC(C(=O)NCCc3c[nH]c4ccc(Cl)cc34)C2=O)cc1 (stereo not drawn) [Example D71, N-(2-(5-chloro-1H-indol-3-yl)ethyl)-1-(4-isopropylphenyl)-2-oxopyrrolidine-3-carboxamide]",0.413
3,"O=C(NCc1c[nH]c2ccc(Cl)cc12)c1cc(Cc2cccc(F)c2)on1 [Example D34, N-((5-chloro-1H-indol-3-yl)methyl)-5-(3-fluorobenzyl)isoxazole-3-carboxamide]",0.059
4,"Cc1cccc(N2CCC(C(=O)NCCc3c[nH]c4ccc(Cl)cc34)C2=O)c1 (stereo not drawn) [Example D159, N-(2-(5-chloro-1H-indol-3-yl)ethyl)-2-oxo-1-m-tolylpyrrolidine-3-carboxamide]",0.9
5,"Cc1ccc(N2CCC(C(=O)NCCc3c[nH]c4ccc(Cl)cc34)C2=O)cc1C (stereo not drawn) [Example D143, N-(2-(5-chloro-1H-indol-3-yl)ethyl)-1-(3,4-dimethylphenyl)-2-oxopyrrolidine-3-carboxamide]",1.02
6,"CC(C)(C)OC(=O)Nc1cc(C(=O)NCCc2c[nH]c3ccc(Cl)cc23)no1 [Example D29, tert-butyl 3-(2-(5-chloro-1H-indol-3-yl)ethylcarbamoyl)isoxazol-5-ylcarbamate]",0.042
7,"Cc1ccc(N2CCC(C(=O)NCCc3c[nH]c4ccc(Cl)cc34)C2=O)cc1 (stereo not drawn) [Example D133, N-(2-(5-chloro-1H-indol-3-yl)ethyl)-2-oxo-1-p-tolylpyrrolidine-3-carboxamide]",0.046
8,"O=C(NCCc1c[nH]c2ccc(Cl)cc12)c1cc(-c2ccc(Cl)cc2)oc1C(F)(F)F [Example D68, N-(2-(5-chloro-1H-indol-3-yl)ethyl)-5-(4-chlorophenyl)-2-(trifluoromethyl)furan-3-carboxamide]",0.337
9,"Cc1ccc(-c2nc(C)c(C(=O)NCCc3c[nH]c4ccc(Cl)cc34)s2)cc1 [Example D45, N-(2-(5-chloro-1H-indol-3-yl)ethyl)-4-methyl-2-p-tolylthiazole-5-carboxamide]",0.113
10,"CC(=O)c1ccc(N2CCC(C(=O)NCCc3c[nH]c4ccc(Cl)cc34)C2=O)cc1 (stereo not drawn) [Example D134, 1-(4-acetylphenyl)-N-(2-(5-chloro-1H-indol-3-yl)ethyl)-2-oxopyrrolidine-3-carboxamide]",0.086
11,"Cc1cc(C(=O)NCCc2c[nH]c3ccccc23)c(C)n1C1CC1 [Example D72, N-(2-(1H-indol-3-yl)ethyl)-1-cyclopropyl-2,5-dimethyl-1H-pyrrole-3-carboxamide]",0.453
12,"Cc1nc(NCCc2ccccc2)sc1C(=O)NCCc1c[nH]c2ccccc12 [Example D39, N-(2-(1H-indol-3-yl)ethyl)-4-methyl-2-(phenethylamino)thiazole-5-carboxamide]",0.087
13,"CCOCc1cc(C(=O)NCCc2c[nH]c3ccc(Cl)cc23)no1 [Example D123, N-(2-(5-chloro-1H-indol-3-yl)ethyl)-5-(ethoxymethyl)isoxazole-3-carboxamide]",0.019
14,"CCc1ccc(N2CCC(C(=O)NCCc3c[nH]c4ccc(C)cc34)C2=O)cc1 (stereo not drawn) [Example D48, 1-(4-ethylphenyl)-N-(2-(5-methyl-1H-indol-3-yl)ethyl)-2-oxopyrrolidine-3-carboxamide]",0.138
15,"O=C(CCc1c[nH]c2ccc(Cl)cc12)N1CCN(Cc2ccccc2)C1 [Example D126, 1-(3-benzylimidazolidin-1-yl)-3-(5-chloro-1H-indol-3-yl)propan-1-one]",0.357
16,"COc1ccc(-c2cc(C(=O)NCCc3c[nH]c4ccc(Cl)cc34)no2)cc1 [Example D49, N-(2-(5-chloro-1H-indol-3-yl)ethyl)-5-(4-methoxyphenyl)isoxazole-3-carboxamide]",0.14
17,"O=C(NCCc1c[nH]c2ccc(Cl)cc12)c1cn(C2CCCCC2)nn1 [Example D44, N-(2-(5-chloro-1H-indol-3-yl)ethyl)-1-cyclohexyl-1H-1,2,3-triazole-4-carboxamide]",0.108
18,"O=C(NCCc1c[nH]c2ccc(Cl)cc12)c1noc(Cc2ccc(F)cc2)n1 [Example D171, N-(2-(5-chloro-1H-indol-3-yl)ethyl)-5-(4-fluorobenzyl)-1,2,4-oxadiazole-3-carboxamide]",0.032

row,Compound,EC50 [µM]
1,"O=C(NCCc1c[nH]c2ncc(Cl)cc12)c1cc(Cc2cc(F)ccc2F)on1 [Example D128, N-(2-(5-chloro-1H-pyrrolo[2,3-b]pyridin-3-yl)ethyl)-5-(2,5-difluorobenzyl)isoxazole-3-carboxamide]",0.105
2,"O=C(NCCc1c[nH]c2ccc(Cl)cc12)c1noc(Cc2ccc(Cl)cc2)n1 [Example D172, N-(2-(5-chloro-1H-indol-3-yl)ethyl)-5-(4-chlorobenzyl)-1,2,4-oxadiazole-3-carboxamide]",0.034
3,"N#Cc1ccc(Cc2cc(C(=O)NCCc3c[nH]c4ccc(Cl)cc34)no2)cc1 [Example D4, N-(2-(5-chloro-1H-indol-3-yl)ethyl)-5-(4-cyanobenzyl)isoxazole-3-carboxamide]",0.009
4,"O=C(NCCc1c[nH]c2ccc(Cl)cc12)C1CCN(c2ccc(F)cc2)C1=O (stereo not drawn) [Example D78, N-(2-(5-chloro-1H-indol-3-yl)ethyl)-1-(4-fluorophenyl)-2-oxopyrrolidine-3-carboxamide]",0.691
5,"O=C(NCCc1c[nH]c2ccc(Cl)cc12)C1=NOC(c2ccccc2)C1 (stereo not drawn) [Example D55, N-(2-(5-chloro-1H-indol-3-yl)ethyl)-5-phenyl-4,5-dihydroisoxazole-3-carboxamide]",0.189
6,"Cn1ccc2cc(N3CCC(C(=O)NCCc4c[nH]c5ccc(Cl)cc45)C3=O)ccc21 (stereo not drawn) [Example D167, N-(2-(5-chloro-1H-indol-3-yl)ethyl)-1-(1-methyl-1H-indol-5-yl)-2-oxopyrrolidine-3-carboxamide]",0.506
7,"Cn1nc(C(=O)NCCc2c[nH]c3ccc(Cl)cc23)cc1-c1ccccc1 [Example D26, N-(2-(5-chloro-1H-indol-3-yl)ethyl)-1-methyl-5-phenyl-1H-pyrazole-3-carboxamide]",0.038
8,"CC(c1ccccc1)N1CCC(C(=O)NCCc2c[nH]c3ccc(Cl)cc23)C1=O (single isomer, unassigned) [D156 Fraction A, N-(2-(5-chloro-1H-indol-3-yl)ethyl)-2-oxo-1-(1-phenylethyl)pyrrolidine-3-carboxamide]",0.819
9,"CCNCc1cc(C(=O)NCCc2c[nH]c3ccc(Cl)cc23)no1 [Example D66, N-(2-(5-chloro-1H-indol-3-yl)ethyl)-5-((ethylamino)methyl)isoxazole-3-carboxamide]",0.327
10,"Cc1ccc(Cc2cc(C(=O)NCCc3c[nH]c4ccc(Cl)cc34)no2)cc1 [Example D12, N-(2-(5-chloro-1H-indol-3-yl)ethyl)-5-(4-methylbenzyl)isoxazole-3-carboxamide]",0.017
11,"O=C(NCCc1c[nH]c2ccc(Cl)cc12)C1CCN(C2CCCCC2)C1=O (stereo not drawn) [Example D76, N-(2-(5-chloro-1H-indol-3-yl)ethyl)-1-cyclohexyl-2-oxopyrrolidine-3-carboxamide]",0.571
12,"O=C(NCCc1c[nH]c2c(F)cc(Cl)cc12)c1cc(Cc2cc(F)ccc2F)on1 [Example D141, N-(2-(5-chloro-7-fluoro-1H-indol-3-yl)ethyl)-5-(2,5-difluorobenzyl)isoxazole-3-carboxamide]",0.233
13,"O=C(NCCc1c[nH]c2ccc(Cl)cc12)C1=N[C@H](Cc2ccccc2)CO1 [Example D81, (R)-4-benzyl-N-(2-(5-chloro-1H-indol-3-yl)ethyl)-4,5-dihydrooxazole-2-carboxamide]",0.917
14,"Cn1ccc(N2CCC(C(=O)NCCc3c[nH]c4ccc(Cl)cc34)C2=O)n1 (stereo not drawn) [Example D160, N-(2-(5-chloro-1H-indol-3-yl)ethyl)-1-(1-methyl-1H-pyrazol-3-yl)-2-oxopyrrolidine-3-carboxamide]",1.04
15,"O=C(NCCc1c[nH]c2ccc(Cl)cc12)c1nnc(Cc2ccccc2)o1 [Example D60, 5-benzyl-N-(2-(5-chloro-1H-indol-3-yl)ethyl)-1,3,4-oxadiazole-2-carboxamide]",0.213
16,"O=C(NCCc1c[nH]c2ccc(Cl)cc12)c1cc(-c2cccc3c2OCCO3)on1 [Example D38, N-(2-(5-chloro-1H-indol-3-yl)ethyl)-5-(2,3-dihydrobenzo[b][1,4]dioxin-5-yl)isoxazole-3-carboxamide]",0.08
17,"O=C(NCCc1c[nH]c2ccc(Cl)cc12)c1nnc(-c2ccccc2)o1 [Example D52, N-(2-(5-chloro-1H-indol-3-yl)ethyl)-5-phenyl-1,3,4-oxadiazole-2-carboxamide]",0.158
18,"O=C(NCCc1c[nH]c2ccc(Cl)cc12)C1=N[C@H](C2CCCCC2)CO1 [Example D58, (R)-N-(2-(5-chloro-1H-indol-3-yl)ethyl)-4-cyclohexyl-4,5-dihydrooxazole-2-carboxamide]",0.202
